Results reported in US20110046079A1, “Use of Proton Pump Inhibitors as Drug Delivery Adjuvants” (priority 2008, published 2011).

Legend:
[1] = test system: rat gastric corpus mucosa; assay: Transepithelial electrical resistance and short circuit current in Ussing chambers; conditions: 0.05 mM digoxin, 0.1 mM phenytoin
Procedure: (§1) Water-jacketed reservoirs maintained chamber saline at 37° C.
(§2) In order to confirm stimulation of acid secretion by secretagogue addition and to verify the efficacy of the PPI, mucosal fluid compartment pH was recorded at intervals throughout the experiment with a manual electrode (Denver Instruments, Denver, Colo.). Ag/AgCl voltage and current electrodes were used to measure PD (potential difference) and ISC (short circuit current) approximately every five minutes for the duration of the experiment, as previously described (Hameed et al. (2004) Dig. Dis. Sci., 49:1381-1386), using two single-channel current/voltage clamps (McGrath Research and Technology). Ohm's Law was used to calculate transepithelial electrical resistance across the tissue.
Electrical parameters were monitored throughout the duration of the experiment. Tissues were maintained under open circuit conditions. […] Tissue voltage (potential difference), short circuit current, and transepithelial resistance were recorded approximately every five minutes for the duration of the experiment, by passing a one-second current pulse equal to biological current to bring the potential difference to zero using a current/voltage clamp (McGrath Research & Technology). Transepithelial resistance was calculated by dividing open circuit potential difference by short circuit current (Ohm's law).

[2] = test system: rat gastric corpus mucosa; assay: Transepithelial drug flux studies (3H-digoxin, 14C-phenytoin, mucosal to serosal) before and after omeprazole or DMSO; assay type: in vitro ADME; conditions: for Post-Omeprazole Flux Value: after 200 μM omeprazole; for Post-Omeprazole Flux Value / Post-DMSO Flux Value: corrected by TLC; for Pre-Omeprazole Flux Value: before 200 μM omeprazole; for % Increase in Flux After DMSO / Post-DMSO Flux Value / Pre-DMSO Flux Value: vehicle control tissue; for Pre-DMSO Flux Value: mean ± SEM
Procedure: Sprague Dawley male rats weighing approximately 400 grams were sacrificed by decapitation and the stomach was quickly removed, cut along the greater curvature, and flushed of luminal contents. The serosal membrane was then stripped from the corpus region and two equal sized pieces of corpus mucosa were mounted in two separate Ussing chambers with exposed tissue areas of 1.13 cm^2. Chambers were connected to 15 mL gas-lift reservoirs filled with un-buffered saline aerated with 100% O2 and bicarbonate-buffered saline aerated with 95% O2/5% CO2 on the mucosal and serosal sides, respectively. Saline temperature was held constant at 37° C. by a jacketed water bath surrounding the reservoirs. 30 minutes at 37° C. was allowed for tissue equilibration. In paired experiments, one tissue served as (vehicle) ‘control’, and the other as omeprazole-treated ‘experimental’.
After 30 minutes of tissue equilibration time in Ussing chambers, dibutyrl cyclic AMP (dBcAMP) (Sigma) was added to a final concentration of 1 mM to the serosal fluid chambers to stimulate acid secretion. […] The addition of the isotope marked the beginning of the flux period. 150 μL or 250 μL samples were taken from the serosal fluid compartment (opposite from which the isotope was added) for liquid scintillation counting (LSC). Samples were initially taken at 30 minute intervals for 90 minutes for the ^14C-phenytoin flux or at 15 minute intervals for 75 minutes for the ^3H-digoxin flux to establish the basal permeability rate (ρmoles/min/cm^2) across the tissue. 200 μM omeprazole (Sigma) (in DMSO) was then added to the mucosal and serosal sides of one chamber and an equivalent amount of DMSO (Sigma) was also added to both sides of the control chamber. Another series of serosal fluid samples were taken for LSC at 15 or 30 minute intervals for the remaining 60 minutes of ^3H-digoxin or ^14C-phenytoin flux experiments, respectfully, to determine flux rate of the radiolabeled drugs after omeprazole addition. In all cases of fluid sampling for liquid scintillation counting, an equal amount of fresh buffered saline was added back to the serosal side to prevent hydrostatic gradients from developing across the tissue. The flux of each isotope (ρmole/min/cm^2) was determined by calculating the linear regression slope of the graph of cpm versus time, and converting cpm to picomoles after determining the specific activity of the drug in the mucosal fluid.
To observe if the omeprazole-induced leak allows for permeation of certain small molecule drugs, ^3H-digoxin was added to the mucosal fluid compartment and saline samples were taken at 15 minute intervals from the serosal fluid compartments for a 135-minute flux period. Omeprazole and/or DMSO were added to their respective tissues 75 minutes after the addition of the isotope. Radioactivity present in the serosal fluid compartment was measured as a function of time before and after the addition of omeprazole or DMSO.

[3] = human, 50 micromolar
Text: A portion of this flux is due to damage of the gastric tissue preparation during mounting in the Ussing chambers. To correct for flux due to edge damage, the flux rate was subtracted prior to omeprazole addition from the flux rate after omeprazole addition. However, the added issue of decline in cell viability over the course of any experiment, and its contribution to overall leak, still remains (this is generally observed in the modest decline in transepithelial electrical resistance over experimental running time).

healthy controls = assay: Sucrose leak test before and after five days of omeprazole or famotidine; assay type: in vivo, human
Procedure: An 8 hour overnight urine sample was collected in a container with 5 ml of 10% thymol in isopropanol as antimicrobial preservative. A courier service picked up urine containers at the patient's home and delivered them to the research laboratory. Total urine volume and refractive index were measured and recorded. […] This amount of sucrose equates to the amount of sucrose which leaked from the upper GI lumen.
H-2 blockers such as PEPCID® (famotidine) also cause a GI leak. The instant study was first performed with 20 subjects, all healthy controls. Randomly 10 were put on PPIs (20 mg of omeprazole), 10 on H-2 blockers (40 mg of famotidine). These amounts are standard for acid suppression therapy. […] They were given doses of these drugs in the morning for five days. A sucrose leak test was done the night of the fifth and last day.
Therefore, a second H-2 blocker study was performed looking at leak in an n=5 group but doing evening doses of famotidine and maintaining the other aspects of the above study, with the post H-2 blocker leak test performed again the night of the 5th dose, but now only with a 4-6 hours after the 5th and final dose.

[4] = test system: rat gastric corpus mucosa; assay: Acid secretion (mucosal fluid pH) of dB-cAMP stimulated tissue in Ussing chambers; conditions: Rattus norvegicus; 25 μM omeprazole, plateau; read-out: inhibition of acid secretion (no further decrease in mucosal fluid pH)
Procedure: as §1, §2
Mucosal and serosal saline pH measurements were taken at approximately five minute intervals using a manual electrode (Denver Instruments) to ensure that the tissue was secreting acid. Mucosal pH readings were also taken before and after the addition of omeprazole to document the action of omeprazole on inhibiting acid secretion. Tissue viability was confirmed at the end of each experiment by tissue exposure to 10 mM amiloride in the mucosal fluid compartment in order to inhibit short circuit current.

[5] = test system: rat gastric corpus mucosa; assay: Transepithelial flux of 14C-labeled probes (mannitol, sucrose, polyethylene glycol) before and after PPI; conditions: for % Increase in Flux of 14C-[D]-mannitol: 200 μM PPI
Procedure: In each experiment, one adult male Sprague Dawley rat was sacrificed by decapitation. The stomach was removed, flushed, and stripped of its outer serosal membrane, while being frequently moistened with chilled, unbuffered saline. Two pieces of corpus mucosa were mounted in modified Ussing chambers, with exposed tissue surface area of 1.13 cm^2. Chambers were connected to gas-lift reservoirs, with a fluid volume of 17 mL per hemichamber. The mucosal hemichamber was filled with unbuffered saline (with 17 mM glucose) and kept aerated and perfused with 100% O2 at 37° C. […] Water-jacketed reservoirs maintained chamber saline at 37° C.
KRB was adjusted to a pH of 7.3-7.4.
Unbuffered saline was gassed with 100% O2 and was used to bathe the mucosal side of the gastric mucosa.
Approximately 30 minutes after tissues were mounted in Ussing chambers, dibutyrl cyclic AMP (dB-cAMP) (Sigma, St. Louis, Mo.) was added to the serosal sides of both chambers to a concentration of 1 mM in order to stimulate acid output by the tissue.
Three experiments were performed with each PPI, examining gastric permeability to ^14C-mannitol.
Three experiments were performed at each omeprazole concentration.

[6] = Kiley et al. (2007); cited from earlier work
patients = conditions: Wilde et al. (1994); cited from earlier work
rat gastric corpus = assay type: in vitro ADME; conditions: omeprazole-treated vs control
Procedure: The numbers provided hereinbelow (Table 6) represent the transepithelial diffusion (mucosal to serosal) of radiolabeled bradykinin. […] It includes only intact bradykinin.
Two data sets from two experiments are provided. These are bradykinin fluxes in picomoles/min/cm^2. One tissue was treated only with DMSO (vehicle control). […] The other tissue (paired pieces of rat gastric corpus) is treated with omeprazole in DMSO. […] The bradykinin leak in controls is likely due to ‘experimental artifact’—in this case mechanical damage of the tissue in handling plus incubation. The increase in flux (leak) of bradykinin seen with DMSO may not be a function of the DMSO at all, but instead simply be a result of tissue ‘breakdown’ over time due to the tissue's very finite lifespan once out of the animal.

[7] = test system: rat gastric corpus mucosa; assay type: in vitro ADME
Procedure: Additional saline samples were taken from the mucosal and serosal fluid compartments one minute before the addition of omeprazole/DMSO and at the end of the entire flux period to allow for thin-layer chromatography (TLC) analysis of radioactivity that crossed the tissue. TLC was performed to account for the potential contribution of radiolabeled metabolites to total radioactivity crossing the epithelial barrier, in the event of drugs entering gastric epithelial cells and metabolites being effluxed. Saline samples were taken from both surfaces of the tissue to determine possible degradation of the molecule upon exposure to the mucosal surface of the tissue as well as to analyze the chemical nature of the radioactivity that crossed the tissue. […] TLC was performed on silica gel 60 plates (Kodak) by spotting very small amounts of the concentrated sample. Plates were then placed in a sandwich tank and a variety of mobile phases were employed, including butanol/acetic acid/water (120:30:50), isopropanol/water (120:30), and ethyl acetate/methanol/water (81:11:8).

C[C@H]1O[C@@H](O[C@H]2[C@@H](O)C[C@H](O[C@H]3[C@@H](O)C[C@H](O[C@H]4CC[C@@]5(C)[C@H](CC[C@@H]6[C@@H]5C[C@@H](O)[C@]5(C)[C@@H](C7=CC(=O)OC7)CC[C@]65O)C4)O[C@@H]3C)O[C@@H]2C)C[C@H](O)[C@@H]1O [digoxin]
effect of the probe drug itself on transepithelial electrical resistance or short circuit current [1]: not themselves exerting an effect
% Increase in Flux After Omeprazole ([2]; 0.05 mM probe, 200 μM omeprazole, P<0.03 vs DMSO): 82.2%
% Increase in Flux After Omeprazole ([2]; 0.05 mM probe, 200 μM omeprazole, P<0.03 vs DMSO, listed as 3H-Digoxin): 82.2% ± 7.7%
Post-Omeprazole Flux Value ([2]; 0.05 mM probe): 9.4 ± 0.6 ρmole/min/cm^2
Pre-Omeprazole Flux Value ([2]; 0.05 mM probe, 4 experiments): 5.1 ± 0.2 ρmole/min/cm^2
% Increase in Flux After DMSO ([2]; 0.05 mM probe): 50.9%
Post-DMSO Flux Value ([2]; 0.05 mM probe): 7.2 ± 1.5 ρmole/min/cm^2
% Increase in Flux After DMSO ([2]; 0.05 mM probe, listed as 3H-Digoxin): 50.9% ± 7.0%
Pre-DMSO Flux Value ([2]; 0.05 mM probe, 4 experiments): 4.8 ± 1.0 ρmole/min/cm^2
increase in flux of total radioactivity (tritium) after omeprazole addition ([2]; 200 μM omeprazole, not corrected by TLC, SEM): 84%
increase in flux of total radioactivity (tritium), vehicle control ([2]; DMSO, not corrected by TLC): 50%
final flux of true 3H-digoxin ([2]; in the presence of omeprazole, 0.05 mM digoxin): approximately 9 picomoles/min/cm^2
final omeprazole-dependent 3H-digoxin flux ([2]; omeprazole flux minus DMSO flux, 4 paired experiments, SEM): 1.8±0.4 picomoles/min/cm^2
total gastric corpus-wide flux [3]: 900 picomoles/minute

COc1ccc2[nH]c([S+]([O-])Cc3ncc(C)c(OC)c3C)nc2c1 (stereo not shown) [omeprazole]
pre-med sucrose leak (healthy controls; baseline before medication, n=10 per group, SEM): 42 mg
post med sucrose leak (healthy controls; morning doses for five days (20 mg omeprazole or 40 mg famotidine), test night of fifth day, n=10): 212 mg
inhibition at 25 µM [4]: 100%
% Increase in Flux of 14C-[D]-mannitol [5]: 68.72%
% Increase in Flux of 14C-[D]-mannitol ([5]; listed as Omeprazole): 68.72 +/− 8.32%
effect on transepithelial permeability at low concentrations ([5]; 1, 5, or 10 μM omeprazole, 14C-mannitol): no significant effect
concentration at which marked transepithelial permeability increase first occurred ([5]; 14C-mannitol, 1-200 μM tested, plateau at 100 and 200 μM): 25 µM
increase of serum levels of digoxin by omeprazole [6]: more than 350%
patients with diarrhea (patients): 1-3%
patients with headache (patients): 0.5-2.4%
patients with nausea (patients): 0.9-2%

CC[C@H](C)[C@@H]1NC(=O)[C@H](Cc2ccc(O)cc2)NC(=O)[C@@H](N)CSSC[C@@H](C(=O)N2CCC[C@H]2C(=O)N[C@@H](CC(C)C)C(=O)NCC(N)=O)NC(=O)[C@H](CC(N)=O)NC(=O)[C@H](CCC(N)=O)NC1=O [oxytocin, Cys-Tyr-Iso-Gln-Asn-Cys-Pro-Leu-Gly]
leak with omeprazole over control (rat gastric corpus): not observed

O=C1NC(=O)C(c2ccccc2)(c2ccccc2)N1 [phenytoin]
effect of the probe drug itself on transepithelial electrical resistance or short circuit current [1]: not themselves exerting an effect
% Increase in Flux After Omeprazole ([2]; 0.1 mM probe, 200 μM omeprazole, listed as 14C-Phenytoin): 54.4% ± 7.7%
% Increase in Flux After Omeprazole ([2]; 0.1 mM probe, 200 μM omeprazole, listed as 14C-phenytoin): 54.4%
Post-Omeprazole Flux Value ([2]; 0.1 mM probe): 119.4 ± 12.9 ρmole/min/cm^2
Pre-Omeprazole Flux Value ([2]; 0.1 mM probe, 3 experiments): 78.3 ± 11.4 ρmole/min/cm^2
% Increase in Flux After DMSO ([2]; 0.1 mM probe): 69.3%
Post-DMSO Flux Value ([2]; 0.1 mM probe): 120.0 ± 14.7 ρmole/min/cm^2
% Increase in Flux After DMSO ([2]; 0.1 mM probe, listed as 14C-Phenytoin): 69.3% ± 13.9%
Pre-DMSO Flux Value ([2]; 0.1 mM probe, 3 experiments): 71.9 ± 9.8 ρmole/min/cm^2
metabolic breakdown on crossing the gastric mucosa [7]: no metabolic breakdown
co-migration of serosal radioactivity with pure phenytoin standard ([7]; male, Sprague Dawley, rat, 0.1 mM): 100%
